Experimental data from patent US20220389377A1, “TREATMENT OF MEDICAL CONDITIONS BY STEM CELL TRANSPLANTS AND STEM CELL ACTIVATION” (Vitro Biopharma, Inc., priority 2021, published 2022).
pEC50: −log10 of the molar value. Where two headings read alike, the source gives them in different places.

Columns and labels:
[1] = system: human MSCs; test: cells; conditions: for pEC50: Homo sapiens; for effect on MSC migration induced by curcumin and quercetin / effect on MSC migration induced by curcumin and resveratrol: 20 μM AMD3100 or 15 μM GM6001; for effect on MSC migration induced by Li-VPA: both AMD 3100 and GM6001 present
Method: (§1) FIG. 1 is a microphotograph depicting cell migration using fluorescent readout and cell tracker green as a fluorescent marker of human UC-MSCs. […] The EC50 was determined as a measure of effectiveness of activating agents. […] An initial analysis of the cell free zone using Image J software was used to screen concentrations of activating agents for dose-response determination in further experiments.
(§2) The cell migration assays described above were set up as follows: One million cells/cell line were resuspended in 10 mL MSC-Gro™ serum free, quiescent medium (Vitro Biopharma Cat. No. SCO0B17) containing 5 μg/mL mitomycin C (Sigma, Cat. No. M4287) to inhibit proliferation and incubated for 2 hours at room temperature with end-to-end agitation at 7 RPM.
In some experiments, curcumin was used at 1 μM to block proliferation. Cells were centrifuged (450×g) for 7 minutes, washed with PBS and then resuspended in 1 mL MSC-Gro™ low serum, complete medium (Vitro Biopharma Cat. No. SCO0B1) and plated at 25,000 cells/well in black 96 well, TC-coated cell culture plates (ThermoScientific, Cat. No. 165305) containing cell seed-stoppers (Platypus, Cat. No. CMAUFL4) to form a cell free zone at the center of the well and incubated in 5% CO2, 1% O2, 94% N2 at 37° C. in a humidified chamber for 24 hrs. Plates used for culture of NSCs were first treated with 10 μg/mL fibronectin (Sigma, Cat. No. F0556) for 2 hours at 37° C. Following washout with PBS (3×), cell seed stoppers were inserted, NSCs were plated at 25,000/well and incubated in 5% CO2, 1% O2, 94% N2 at 37° C. in a humidified chamber for 48 hrs.
For studies of the effects of CXCR4 and MMP-9 inhibition following 24 hours of cell culture, appropriate wells were dosed with 15 μM GM6001 and 20 μM AMD3100 for 6 hours. Cells were washed once with PBS then incubated in serum free, MSC-Gro™ (Vitro Biopharma Cat. No. SCO0B17) containing 5 μM Cell Tracker Green CIVIFDA (Molecular Probes, Cat. No. C7025) at 37° C. for 30 minutes. The wells were then washed with serum free, MSC-Gro™ (Vitro Biopharma Cat. No. SCO0B17) and incubated for 30 minutes at 37° C. Cells were washed once with PBS and this was replaced with MSC-Gro™ serum free, quiescent medium (Vitro Biopharma Cat. No. SCO0B17) containing different concentrations of activating agents. […] A TopSeal (PerkinElmer, Cat. No. 6050195) covered the plate for live-cell imaging in a BioTek Cytation3 imaging reader. Kinetic data was acquired every 2 hrs for 24 hrs using a GFP filter and bright field data acquisition. The gas phase throughout the acquisition of kinetic data was 5% O2, 5% CO2 with the balance nitrogen maintained by a BioTek CO2/O2 gas controller. Images were saved as TIFF files to calculate percent closure using imaging data.

[2] = system: human MSCs; test: Gene expression analysis by qPCR in human MSCs; type: cell-based; conditions: for expression of Oct 3/4 / expression of SIRT-1 / expression levels of FGF-21, CXCR4 and Hsp70: 250 μM VPA, 500 nM curcumin, FIG. 13
Method: Beta actin was measured as a house-keeping gene. […] Gene expression was quantified by determining the amount of gene-specific DNA/total cDNA. Data is mean+/−SD of 4 replicates.
Native human umbilical cord-derived MSCs (Vitro Biopharma Cat. No. SC00A1) were expanded from cryopreservation in T-25 TC-coated flasks (BD Falcon, Cat. No. 353108) in MSC-Gro™ low serum, complete medium (Vitro Biopharma Cat. No. SCO0B1). Cells were sub-cultured and counted on a Beckerman-Coulter Z2 particle counter (range 10 μm-30 μm). Cells were plated at 10,000/cm^2 a TC-coated Greiner Bio-One T75 flask and maintained in MSC-Gro™ serum free, complete medium (Vitro Biopharma Cat. No. SCO0B3) in a reduced O2 environment (1% O2, 5% CO2, 94% N2) at 37° C. in a humidified chamber. The MSCs were treated continuously for up to 2 weeks. Cultures were fed every 3 days. Cells were harvested using Accutase (Innovative Cell Technologies Inc., Cat No AT-104) and centrifuged (450×g) for 7 minutes. Cell supernatant was aspirated off and cells were resuspended in 1 mL PBS and counted on a Beckerman-Coulter Z2 particle counter (range 10 μm-30 μm). Total RNA was extracted using RNeasy mini kit (Qiagen Cat. No. 74104). RNA was quantified using an absorbance measurement at 260 nm. RNA was converted to cDNA using Quantitect reverse transcription kit (Qiagen Cat. No. 205310) in a thermocycler. RNA was incubated in the gDNA elimination reaction for 2 minutes at 42° C. then incubated in the reverse-transcription master mix for 15 minutes at 42° C. Immediately after, it was incubated at 95° C. for 3 minutes for inactivation. cDNA was sent to an outside lab (CU-Anschutz Metabolic Laboratory) for q-PCR to detect relative or absolute gene expression levels. cDNA was diluted 1:5 and an iTaq Universal Supermix fluorescent probe (BioRad Cat. No. 172-5120) used to detect the threshold cycle (Ct) during PCR Dilution factors and cDNA concentrations were calculated into recorded values then normalized to untreated hMSCs (Vitro Biopharma Cat. No. SC00A1).
Gene expression was quantified by determining the amount of gene-specific DNA/total cDNA. Data is mean+/−SD of 4 replicates.
Native human umbilical cord-derived MSCs (Vitro Biopharma Cat. No. SC00A1) were expanded from cryopreservation in T-25 TC-coated flasks (BD Falcon, Cat. No. 353108) in MSC-Gro™ low serum, complete medium (Vitro Biopharma Cat. No. SCO0B1). Cells were sub-cultured and counted on a Beckerman-Coulter Z2 particle counter (range 10 μm-30 μm). Cells were plated at 10,000/cm2 a TC-coated Greiner Bio-One T75 flask and maintained in MSC-Gro™ serum free, complete medium (Vitro Biopharma Cat. No. SCO0B3) in a reduced O2 environment (1% O2, 5% CO2, 94% N2) at 37° C. in a humidified chamber. The MSCs were treated continuously for up to 2 weeks. Cultures were fed every 3 days. Cells were harvested using Accutase (Innovative Cell Technologies Inc., Cat No AT-104) and centrifuged (450×g) for 7 minutes. Cell supernatant was aspirated off and cells were resuspended in 1 mL PBS and counted on a Beckerman-Coulter Z2 particle counter (range 10 μm-30 μm).
Total RNA was extracted using RNeasy Mini Kit (Qiagen Cat. No. 74104). RNA was quantified using an absorbance measurement at 260 nm. RNA was converted to cDNA using Quantitect reverse transcription Kit (Qiagen Cat. No. 205310) in a thermocycler. RNA was incubated in the DNA elimination reaction for 2 minutes at 42° C. then incubated in the reverse-transcription master mix for 15 minutes at 42° C. Immediately after, it was incubated at 95° C. for 3 minutes for inactivation. cDNA was sent to an outside lab (CU-Anschutz Metabolic Laboratory) for q-PCR to detect relative or absolute gene expression levels. cDNA was diluted 1:5 and an iTaq Universal Supermix fluorescent probe (BioRad Cat. No. 172-5120) was used to detect the threshold cycle (Ct) during PCR.

[3] = system: CAFs, primary fibroblasts and MSCs; test: Presto Blue proliferation assay, CAFs, primary fibroblasts and MSCs (FGF-2 validation); type: cell-based, human; conditions: 5 day exposure
Method: (§3) Example 5: Effects of lithium and VPA on stem cell proliferation: The effects of lithium and VPA on stem cell proliferation were then investigated using an assay based on Presto Blue, a fluorescent marker of cellular reduction. FIG. 8 is a line graph representation illustrating proliferation of different cell lines induced by increasing concentrations of FGF-b (FGF-2) after a 5 day exposure. Relative fluorescent units were measured using a FITC filter on a Modulus microplate reader and plotted as a function of FGF-2. The data was modeled by sigmoidal curve fitting to calculate EC50 values. […] Proliferation of these mesenchymal cells was stimulated by recombinant human FGF-2 with EC50 values in the range of 3 to 6 ng/ml with maximal proliferative responses at about 10 ng/ml.

[4] = system: human NSCs; test: Cell migration assay, human NSCs; type: cell-based; conditions: read-out: EC50 of VPA for NSC migration in 200 μM lithium, increasing VPA in 200 μM lithium, FIG. 6
Method: as §1, §2
In some experiments, curcumin was used at 1 μM to block proliferation. […]
For studies of the effects of CXCR4 and MMP-9 inhibition following 24 hours of cell culture, appropriate wells were dosed with 15 μM GM6001 and 20 μM AMD3100 for 6 hours. […] A TopSeal (PerkinElmer, Cat. No. 6050195) covered the plate for live-cell imaging in a BioTek Cytation3 imaging reader. […]

[5] = system: MSCs; test: Presto Blue proliferation assay, MSCs; type: cell-based; conditions: Homo sapiens
Method: as §3
The proliferative effects of lithium and VPA were compared, either alone or in combination to MSC proliferation. The results are shown in FIG. 9, which is a line graph representation illustrating proliferation of MSCs induced by lithium, VPA and VPA in 200 μM lithium after a 5 day exposure. Relative fluorescent units were measured using a FITC filter on a Modulus microplate reader and plotted as a function of FGF-2. The data was modeled by sigmoidal curve fitting to calculate EC50 values.

[6] = system: NSCs; test: Presto Blue proliferation assay, NSCs; type: cell-based; conditions: Homo sapiens, 120 h, read-out: EC50 of VPA for NSC proliferation in 200 μM lithium, 5 day exposure, FIG. 10
Method: as §3
The proliferative responses of MSCs and NSCs were compared to Li-VPA. The results are shown in FIG. 10, which is a line graph representation illustrating proliferation of MSCs and NSCs as a function of increasing VPA in 200 μM lithium after a 5 day exposure. Relative fluorescent units were measured using a FITC filter on a Modulus microplate reader and plotted as a function of FGF-2. The data was modeled by sigmoidal curve fitting to calculate EC50 values. […] This may reflect intrinsic proliferative capacity. […]

[7] = system: human fibroblast; conditions: read-out: EC50 of human fibroblast migration induced by Substance P (prior study); suspension culture system; Parenti et al. 1996; cited from earlier work
[8] = Example 6, 31.25 μM VPA, 200 μM lithium, FIG. 11

In the case of `Oc1ccc(C=Cc2cc(O)cc(O)c2)cc1` [resveratrol], the pEC50 ([1]; read-out: EC50 of resveratrol for MSC migration in 500 nM curcumin, 500 nM curcumin, FIG. 15) was 6.60.

For `c1cc(CN2CCCNCCNCCCNCC2)ccc1CN1CCCNCCNCCCNCC1` [AMD3100], the “effect on VPA-induced MSC migration” value ([1]; 20 μM AMD3100, CXCR4 inhibitor, FIG. 7) was “blocked”, the “effect on MSC migration induced by curcumin and quercetin” value ([1]; FIG. 14) was “blocked MSC migration” and the “effect on MSC migration induced by curcumin and resveratrol” value ([1]; FIG. 15) was “blocked MSC migration”. The “effect on MSC migration induced by Li-VPA” value ([1]; FIG. 7) was “blocked”.

For `COc1cc(/C=C/C(=O)CC(=O)/C=C/c2ccc(O)c(OC)c2)ccc1O` [curcumin], the pEC50 ([1]; 36 h, read-out: apparent EC50 of curcumin-induced migration, MSCs, percent closure after 36-hour run) was 6.60, the “concentration at which curcumin induced migration” value ([1]; human MSCs, 36-hour run) was “less than 1 μM” and the “estimated LD50 (apparent toxicity, reduced cell number)” value ([1]; human, 36 h) was 3 µM. The “expression of Oct 3/4, SIRT-1, FGF21, CXCR4 and Hsp70 as compared to VPA” value ([2]; Example 8, 500 nM curcumin vs 250 μM VPA) was “equivalent or increased expression”, the “expression of Oct 3/4” value ([2]; Example 8) was “about 20 fold” and the “expression of SIRT-1” value ([2]; Example 8) was ~300 fold.

With “FGF-2: recombinant human FGF-2, member of the family of fibroblast growth factors” the “concentration of maximal proliferative responses” value [3] was “about 10 ng/ml”.

In the case of `CNC(=O)[C@H](Cc1c[nH]c2ccccc12)NC(=O)[C@@H](CC(=O)NO)CC(C)C` [GM6001], the “effect on lithium-induced MSC migration” value ([1]; 15 μM GM6001, MMP-9 inhibitor, FIG. 7) was “blocked”, the “effect on MSC migration induced by curcumin and quercetin” value ([1]; FIG. 14) was “blocked MSC migration” and the “effect on MSC migration induced by curcumin and resveratrol” value ([1]; FIG. 15) was “blocked MSC migration”. For the same compound, the “effect on MSC migration induced by Li-VPA” value ([1]; FIG. 7) was “blocked”.

In the case of `CC(/C=C/C(=O)NO)=C\[C@@H](C)C(=O)c1ccc(N(C)C)cc1` [TSA], the “expression levels of FGF-21, CXCR4 and Hsp70” value (“expression levels” for short) ([2]; Example 8) was “lower levels”, the “expression of Oct 3/4” value ([2]; Example 8) was “less expression activation” and the “expression of SIRT-1” value ([2]; Example 8) was “significantly less effective”.

For `CCCC(CCC)C(=O)O` [VPA, valproic acid], the pEC50 [4] was 4.45, the pEC50 ([5]; 200 μM lithium, MSCs and NSCs, proliferation and migration, read-out: VPA concentration 50% effective in inducing cell proliferation and migration (mean)) was 4.43 and the pEC50 ([5]; 200 μM lithium, MSCs and NSCs, proliferation and migration, read-out: VPA concentration 50% effective in inducing cell proliferation and migration (range)) was 4.41 to 4.46. For the same compound, the pEC50 ([5]; 120 h, 5 day exposure, FIG. 9, read-out: EC50 of MSC proliferation, agent alone) was 4.32, the pEC50 ([5]; 120 h, read-out: EC50 of VPA for MSC proliferation in 200 μM lithium, 5 day exposure, 200 μM lithium) was 4.20 and the pEC50 [6] was 4.43. The pEC50 ([1]; read-out: EC50 of MSC migration, agent alone, percent closure, sigmoidal curve fit, FIG. 5) was 4.42, the pEC50 ([1]; read-out: EC50 of VPA for MSC migration in 200 μM lithium, increasing VPA in 200 μM lithium) was 4.48 and the “concentration of maximal migration / maximum closure” value ([1]; agent alone, FIG. 5) was 100 µM. The “expression of Oct 3/4 compared to untreated human MSCs” value [2, 8] was “about 20 fold”, the “expression of SIRT-1 compared to untreated MSC” value [2, 8] was ~300 fold and the “expression of Oct 3/4” value ([2]; Example 8) was “about 20 fold”. For the same compound, the “expression of SIRT-1” value ([2]; Example 8) was ~300 fold.

For `CCCC(=O)[O-].[Na+]` [Na butyrate], the “expression levels” value ([2]; Example 8) was “lower levels”, the “expression of Oct 3/4” value ([2]; Example 8) was “less expression activation” and the “expression of SIRT-1” value ([2]; Example 8) was “significantly less effective”.

For `CSCC[C@H](NC(=O)[C@H](CC(C)C)NC(=O)CNC(=O)[C@H](Cc1ccccc1)NC(=O)[C@H](Cc1ccccc1)NC(=O)[C@H](CCC(N)=O)NC(=O)[C@H](CCC(N)=O)NC(=O)[C@@H]1CCCN1C(=O)[C@H](CCCCN)NC(=O)[C@@H]1CCCN1C(=O)[C@@H](N)CCCNC(=N)N)C(N)=O` [Substance P], the pEC50 [7] is given as 8.66, the “MSC migration into cell-free center of the well” value ([1]; 3.7 nM Substance P, 24 hours) is given as “induced MSC migration into the cell-free center of the well” and the “MSC migration (percent closure) dose-response” value ([1]; Substance P from 0 to 18.5 nM, 24-hour live cell analysis) is given as “migration increased in a dose-dependent manner”.

For `CCCCC(=O)O` [valeric acid], the “expression levels” value ([2]; Example 8) was “lower levels”, the “expression of Oct 3/4” value ([2]; Example 8) was “less expression activation” and the “expression of SIRT-1” value ([2]; Example 8) was “significantly less effective”.

Work on `O=c1c(O)c(-c2ccc(O)c(O)c2)oc2cc(O)cc(O)c12` [quercetin] yielded a pEC50 ([1]; read-out: EC50 of quercetin for MSC migration in 500 nM curcumin, 500 nM curcumin, FIG. 14) of 6.50.
